Experimental data: patent US20240241108A1, “LUNG ORGANOID MODEL AND METHOD OF USE” (The Regents of the University of California, priority 2021, published 2024)

What was measured:
SARS-COV-2 [1] = assay: Pre-clinical drug screen in SARS-COV-2-infected lung organoid monolayers (384-well), viral E gene qPCR readout; format: cell-based; conditions: FIG. 3G; for viral titer (abundance of E gene in the monolayers): pre-treated for 4 hours prior to infection, assessed at 48 hours post-infection, DMSO control
Method: Using the E gene as a readout, it was determined whether lung organoid models could be used as platforms for pre-clinical drug screens. The efficacy of nucleoside analog N^4-hydroxycytidine (NHC: EIDD-parent) and its derivative pro-drug. EIDD-2801, were tested. […] Lung organoid monolayers plated in 384-wells were pre-treated for 4 hours with the compounds or DMSO, as a control, prior to infection. The monolayers were assessed at 48 hours post-infection for the abundance of E gene in the monolayers.
Densely packed organoids, collected in PBS/0.5 mM EDTA were centrifuged at 200 rcf for 5 minutes. Organoids were dissociated in 2 mL trypLE Select (Gibco, USA) per 12 wells of organoids at 37 °C for 4-5 minutes and mechanically sheared by pipetting up and down. The TrypLE was inactivated with al-to-5 trypLE to Lung Wash Media ratio. The cells were thereafter centrifuged at 300 g for 4 minutes. The supernatant was aspirated and resuspended in the cell pellet at room temperature using PneumaCult Ex-Plus Mix, with larger clumps of cells being filtered out using […] filter. The viable cells were counted and plated using PneumaCult Ex-Plus media. Cells were either plated 10^5 cells per well in a 96 well plate, or 2×10^4 cells per well in a 384 well Matrigel coated plate. The media was changed after 24 hours of incubation. After 48 hours of plating, the cells were differentiated and appeared flattened. The cells were then infected with MOI of 0.5 with SARS-COV-2. After treatment, the lung monolayers were used for RNA sequencing, immunostaining, and other functional assay.
Lung organoid-derived monolayers or primary airway epithelial cells, either in 384 well plates or in transwells, were washed twice with antibiotic-free lung wash media. […]
Assessment of SARS-COV-2 infectivity test was determined by qPCR using TaqMan assays and TaqMan Universal PCR Master Mix96.97. cDNA was amplified with gene-specific primer/probe set for the E gene and qPCR was performed with the Applied Biosystems QuantStudio 3 Real-Time PCR System. […]

SARS-COV-2 [2] = conditions: cited from earlier work
SARS-COV-2 [3] = conditions: cited from earlier work; remark: listed apart in the source

SMILES | efficacy compared with the parent compound (reduction of viral titer) (SARS-COV-2 [1]; pre-treated 4 hours, 48 hours post-infection) | viral titer (abundance of E gene in the monolayers) (SARS-COV-2 [1]) | inhibition of viral replication in vitro (SARS-COV-2 [2]) | inhibition of viral replication in SARS-COV-2-challenged ferrets (SARS-COV-2 [3])
CC(C)C(=O)OC[C@H]1O[C@@H](n2ccc(NO)nc2=O)[C@H](O)[C@@H]1O [EIDD-2801] | showed a better efficacy | effectively reduced the viral titer in a dose-dependent manner | inhibit viral replication | inhibit viral replication
O=c1nc(NO)ccn1[C@@H]1O[C@H](CO)[C@@H](O)[C@H]1O [NHC, N^4-hydroxycytidine] | – | effectively reduced the viral titer in a dose-dependent manner | inhibit viral replication | inhibit viral replication
